Results on two compounds are retold here after patent US20230150986A1, “ANTAGONISTS OF THE MUSCARINIC ACETYLCHOLINE RECEPTOR M4” (Vanderbilt University, priority 2019, published 2023).

For data set [1], the target named is T1, P-gp (Homo sapiens, UniProt P08183).
T1 construct: expressed in transfected cells; host or cells: MDR1-MDCK
Put plainly: P-gp efflux in MDR1-MDCK cell monolayers. It is filed as in vitro ADME. As to conditions: dog, pH 7.4, MDCK-MDR1, 5 μM. The protocol: MDR1-MDCK cell monolayers were grown to confluence on collagen-coated, microporous membranes in 12-well assay plates. The permeability assay buffer was Hanks' balanced salt solution containing 10 mM HEPES and 15 mM glucose at a pH of 7.4. The buffer in the receiver chamber also contained 1% bovine serum albumin. The dosing solution concentration was 5 μM of test article in the assay buffer. Cell monolayers were dosed on the apical side (A- to -B) or basolateral side (B- to -A) and incubated at 37° C. with 5% CO2 in a humidified incubator. Samples were taken from the donor and receiver chambers at 120 minutes Each determination was performed in duplicate. The flux of lucifer yellow was also measured post-experimentally for each monolayer to ensure no damage was inflicted to the cell monolayers during the flux period. All samples were assayed by LC-MS/MS using electrospray ionization.

The target of data set [2] is T2, cytochrome P450 2D6 (Homo sapiens, UniProt P10635).
T2 construct: human liver microsomes (HLM; 0.1 mg/mL); from tissue; host or cells: human liver microsomes
T2 sequence (P10635 whole entry): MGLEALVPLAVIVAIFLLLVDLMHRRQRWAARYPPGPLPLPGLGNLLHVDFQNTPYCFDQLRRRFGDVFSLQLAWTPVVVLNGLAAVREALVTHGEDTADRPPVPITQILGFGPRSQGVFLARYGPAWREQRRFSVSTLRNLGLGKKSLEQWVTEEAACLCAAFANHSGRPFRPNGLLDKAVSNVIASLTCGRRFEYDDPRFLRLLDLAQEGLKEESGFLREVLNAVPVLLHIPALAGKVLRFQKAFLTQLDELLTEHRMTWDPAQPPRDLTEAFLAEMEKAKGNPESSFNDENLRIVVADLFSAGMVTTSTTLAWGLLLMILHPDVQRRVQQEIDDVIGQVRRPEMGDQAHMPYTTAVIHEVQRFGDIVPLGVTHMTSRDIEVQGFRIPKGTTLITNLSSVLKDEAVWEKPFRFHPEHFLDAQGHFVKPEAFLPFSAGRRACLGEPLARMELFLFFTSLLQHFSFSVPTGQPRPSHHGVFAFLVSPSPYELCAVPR
Put plainly: Cytochrome P450 cocktail inhibition assay, 2D6 (dextromethorphan). In kind it is in vitro ADME. As to conditions: human liver microsomes 0.1 mg/mL; read-out: CYP Inhibition (2D6). The protocol:
Solutions of substrates for cytochrome P450 enzymes (1A2: Phenacetin, 10 μM; 2C9: Diclofenac, 5 μM; 2D6: Dextromethorphan, 5 μM; 3A4: Midazolam, 2 μM; as a mixture), test compound (VU6028418; multiple concentrations), and the positive control for pan-P450 inhibition (miconazole; multiple concentrations) were prepared. A reaction mixture of assay buffer (100 mM Kpi at pH 7.4), human liver microsomes (HLM; 0.1 mg/mL), and the substrate mixture were aliquoted into a 96-deepwell plate. The test compound and control were then added to the plate such that the final concentration of test compound ranged from 0.1-30 μM (two replicates per concentration). The assay plate was vortexed (briefly) and pre-incubated at 37° C. in an orbital shaker for 15 minutes. The reaction was initiated by addition of NADPH (1 mM, final concentration) and continued for 8 min before it was quenched by acetonitrile (2× volume) containing an LCMS internal standard (carbamazepine, 50 nM). The plate was then centrifuged (4000 rcf, 4° C., 10 min), and the resulting supernatant was diluted with water (1× volume) for LC-MS/MS. Assay samples were analyzed via electrospray ionization on an AB Sciex API-4000 (Foster City, Calif.) triple-quadrupole mass spectrometer coupled to Agilent Technologies 1290 Infinity series pumps (Santa Clara, Calif.), and a Leap Technologies CTC PAL auto -sampler (Carrboro, NC). Analytes were separated by gradient elution on a Phenomenex Kinetex (C18 2.1×50 mm 5 μm) column (Torrance, Calif.) thermostated at 40° C. The HPLC mobile phase A was 0.1% formic acid in water (pH unadjusted), and the mobile phase B was 0.1% formic acid in acetonitrile (pH unadjusted). […] The total run time was 2.5 min and the HPLC flow rate was 0.5 mL/min. The source temperature was set at 500° C. and mass spectral analyses were performed using multiple reaction monitoring (MRM) with mass transitions specific to each substrate's metabolite utilizing a Turbo-Ionspray® source in positive ionization mode (5.0 kV spray voltage). The test compound and control IC50 values for each enzyme were obtained by quantitating the inhibition of metabolite formation for each substrate. A 0 μM test compound (or control) conditions represented 100% enzymatic activity, and the effect of increasing test compound concentrations on enzymatic activity was then calculated from the % of control activity. Inhibition curves were fitted using XLfit 5.2.2 (four-parameter logistic model, equation 201) in order to calculate the concentration that produced half-maximal inhibition (IC50) of each enzyme.
A general note: Liver microsomes are a subcellular fraction often used to study metabolism.

In data set [3] the test system is Sprague-Dawley rats. Put plainly: Haloperidol-induced catalepsy assay. It is filed as in vivo, rat. As to conditions: for reversal of catalepsy: haloperidol 1.5 mg/kg i.p. The protocol:
Drugs. Compound 1 was weighed and 2% Tween 80/0.5% methylcellulose were placed on top of the compound in serum bottles. This was sonicated for about an hour. All doses were administrated at 10 mL/kg p.o. The final solution is a suspension. Haloperidol was dissolved in 1 mL of 8% lactic acid and taken to 50 mL with sterile water. Haloperidol was dosed at 1 mL/kg i.p.
1. Haloperidol 1.5 mg/kg, i.p.
2. Compound 1, 0.3-3 mg/kg, p.o.
3. Vehicle (2% tween 80/0.5% MC), p.o.
Animals. Male Sprague-Dawley rats weighing between 290-326 grams (Envigo, Inc., Indianapolis, Ind.) were used. They were housed in the animal care facility certified by the American Association for the Accreditation of Laboratory Animal Care (AAALAC) under a 12-hour light/dark cycle (lights on: 7 a.m.; lights off: 7 p.m.) and had free access to food and water. The experimental protocols performed during the light cycle were approved by the Institutional Animals Care and Use Committee of Vanderbilt University and conformed to the guidelines established by the National Research Council Guide for the Care and Use of Laboratory Animals.
Haloperidol-induced catalepsy. Adult male Sprague-Dawley rats are injected with 1.5 mg/kg of haloperidol i.p. Thirty minutes later, the animals are administered 0.3-3 mg/kg of Compound 1 or vehicle. Cataleptic behavior is determined 60 minutes later by placing the forelimbs on a bar raised 6 cm above the table and recording the amount of time it takes for the rat to withdraw the forelimbs with a cutoff of 60 seconds. Data are expressed as mean latency to withdraw ±SEM or percent inhibition of catalepsy ±SEM.
Data Analysis. The data for these dose-response studies were analyzed by a one way analysis of variance. If there was a main effect of dose, then each dose group was compared with each of the other treated groups using GraphPad Prism (version 4.03, GraphPad, La Jolla, Calif.).

pIC50: −log10 of the molar value.

T1 sequence (P08183 whole entry): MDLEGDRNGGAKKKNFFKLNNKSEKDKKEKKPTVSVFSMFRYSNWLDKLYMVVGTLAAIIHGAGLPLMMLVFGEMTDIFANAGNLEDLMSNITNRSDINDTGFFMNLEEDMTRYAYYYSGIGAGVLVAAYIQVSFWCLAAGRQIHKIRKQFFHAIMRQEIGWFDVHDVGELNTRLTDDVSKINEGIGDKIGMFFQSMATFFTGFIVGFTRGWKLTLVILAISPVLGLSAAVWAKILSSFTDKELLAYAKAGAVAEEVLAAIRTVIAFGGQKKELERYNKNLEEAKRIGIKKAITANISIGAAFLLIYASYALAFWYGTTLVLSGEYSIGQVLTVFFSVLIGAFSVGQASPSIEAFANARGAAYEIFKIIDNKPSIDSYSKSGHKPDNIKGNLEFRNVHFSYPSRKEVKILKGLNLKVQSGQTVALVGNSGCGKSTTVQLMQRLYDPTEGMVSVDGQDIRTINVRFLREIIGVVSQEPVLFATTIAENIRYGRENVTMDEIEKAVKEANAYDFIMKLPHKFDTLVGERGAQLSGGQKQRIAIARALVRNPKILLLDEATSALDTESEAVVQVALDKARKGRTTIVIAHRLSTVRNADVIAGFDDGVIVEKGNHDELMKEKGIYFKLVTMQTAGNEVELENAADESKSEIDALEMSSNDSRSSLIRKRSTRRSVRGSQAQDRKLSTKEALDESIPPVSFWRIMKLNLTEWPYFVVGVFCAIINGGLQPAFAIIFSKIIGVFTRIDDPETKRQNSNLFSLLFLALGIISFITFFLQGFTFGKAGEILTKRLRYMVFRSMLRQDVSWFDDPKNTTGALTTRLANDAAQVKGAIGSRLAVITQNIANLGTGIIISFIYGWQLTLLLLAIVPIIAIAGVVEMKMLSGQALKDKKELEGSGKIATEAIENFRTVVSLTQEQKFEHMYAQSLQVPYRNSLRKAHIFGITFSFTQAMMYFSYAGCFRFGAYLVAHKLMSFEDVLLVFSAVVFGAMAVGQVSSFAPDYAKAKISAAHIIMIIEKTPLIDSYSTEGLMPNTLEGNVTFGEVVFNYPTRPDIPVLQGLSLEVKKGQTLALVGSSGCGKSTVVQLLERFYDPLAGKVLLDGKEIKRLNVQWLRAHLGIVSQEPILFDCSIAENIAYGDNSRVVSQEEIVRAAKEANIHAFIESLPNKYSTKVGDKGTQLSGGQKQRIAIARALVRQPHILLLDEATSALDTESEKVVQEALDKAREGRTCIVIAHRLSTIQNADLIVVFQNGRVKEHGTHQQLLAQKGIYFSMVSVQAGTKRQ

Take `Fc1cc(F)c(F)c(-c2ccc(N[C@H]3C[C@@H]4CN(Cc5ccccn5)C[C@@H]4C3)nn2)c1` [Compound 2, (3aR,5s,6aS)-2-(pyridin-2-ylmethyl)-N-(6-(2,3,5-trifluorophenyl)pyridazin-3-yl)octahydrocyclopenta[c]pyrrol-5-amine]: the efflux ratio – broadly, a quotient of directional permeabilities that is used to spot active efflux – at 120 min, 5 μM in data set [1] came out at 2.6. The pIC50 in data set [2] was less than 4.52.
In the case of `Fc1cc(F)c(F)c(-c2ccc(N[C@H]3C[C@@H]4CN(CC5CCOCC5)C[C@@H]4C3)nn2)c1` [Compound 1, (3aR,5s,6aS)-2-((tetrahydro-2H-pyran-4-yl)methyl)-N-(6-(2,3,5-trifluorophenyl)pyridazin-3-yl)octahydrocyclopenta[c]pyrrol-5-amine], the efflux ratio at 120 min, 5 μM in data set [1] amounted to 8.9. The “reversal of cataleptic behavior” value in data set [3] (0.3 mg/kg) is recorded as 26.2 0/0. Further, the reversal of catalepsy in data set [3] (1 mg/kg p.o., rat, p<0.01) is 50.9%; in data set [3] (3 mg/kg p.o., rat, p<0.001) it was 65.2%. Moreover, the “latency to withdraw (forelimbs) compared to vehicle treated control animals” value in data set [3] (0.3-3 mg/kg p.o., rat, F3,36=8.7 p<0.001) is reported as “significantly reduced”. Besides, in data set [2], the pIC50 is less than 4.52.
